Experimental data taken from patent publication US20160128926A1, “COMPOSITIONS AND METHODS FOR TREATING NAILS, CLAWS, AND HOOFS” (TOPICAL SOLUTIONS, INC., priority 2013, published 2016).

Legend:
[1] = target: T1, hFP prostaglandin receptor (Homo sapiens, UniProt P43088); experiment: Competition binding assay (Reference Example 1), cited as the method for Example 1
T1 construct: expressed in transfected cells; host or cells: COS 7 cells transiently transfected (pCR 3.1 vector); the summary sentence instead says stably transfected CHO-KI cells

[2] = system: Prostanoid F receptor family and the Prostanoid E1 receptor family; experiment: R-SAT functional assay (Reference Example 2), cited as the method for Example 2; assay type: cell-based; details: 23 Days
Excerpt: Without intending to be limited by theory, there are two principal prostaglandin receptor families that control nail growth: the Prostanoid F receptor family and the Prostanoid E1 receptor family. Potential at these receptors in measured in two types of assays-binding assays and functional assays. The functional assay is described herein and the binding assay is above as Reference Example 1.
There are many functional assays available, for example, growth in Swiss 3T3 cells. Preferred is the R-SAT system. R-SAT is a cell-based assay system where genes are transferred to cultured cells. The functional activity of the gene products, or potential drug targets, are then evaluated through signal transduction pathways that lead to cellular growth. The growth signals are reported using marker gene technologies. Thus, effects of drugs on potential drug targets can be efficiently detected as changes in color or fluorescence. R-SAT enables the efficient screening of large compound libraries for identification of new chemistries at given targets, as well as detailed pharmacological testing of compounds at a wide range of targets, as described in MESSIER, T., DORMAN, C. M.; BRAUNEROSBORNE, H.; EUBANKS, D. & BRANN, M. R. (1995) Pharmacol. and Toxicol. 76 308-311, incorporated herein by reference.
was tested according to the method of Reference Example 2.

T1 sequence (P43088 whole entry): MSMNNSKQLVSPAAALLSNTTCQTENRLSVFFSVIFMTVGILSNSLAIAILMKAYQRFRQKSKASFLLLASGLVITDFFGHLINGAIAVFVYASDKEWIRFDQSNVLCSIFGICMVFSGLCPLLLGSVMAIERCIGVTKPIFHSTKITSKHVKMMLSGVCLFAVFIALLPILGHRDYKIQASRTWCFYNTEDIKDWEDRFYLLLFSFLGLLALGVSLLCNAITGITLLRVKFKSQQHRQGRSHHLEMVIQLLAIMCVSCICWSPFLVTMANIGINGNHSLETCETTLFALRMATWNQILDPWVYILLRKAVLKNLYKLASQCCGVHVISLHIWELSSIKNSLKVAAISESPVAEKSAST

| Average Grades ([1]; 23 Days) | Average Grades ([1]; 25 Days) | Average Grades ([1]; 26 Days) | Structure (SMILES) | Average Grades [2] |
| --- | --- | --- | --- | --- |
| 0.4 | 0.1 | 0.7 | CC(C)OC(=O)CCCCCC[C@@H]1[C@@H](CCC(O)CSc2ccccc2)[C@H](O)C[C@@H]1O (stereo partly shown) [Example 1] |  |
|  |  |  | COC(=O)CCCCCC[C@@H]1[C@@H](CCC(O)CSc2ccccc2Br)[C@H](O)C[C@@H]1O (stereo partly shown) [Example 2] | 0.1 |
